Results from patent publication US20130137111A1, “DETECTION METHOD OF NOVEL RET FUSION” (Astellas Pharma Inc., priority 2010, published 2013).

Legend:
[1] = tested on: FLAG-KIF5B-RETv1S/NIH3T3 cells; experiment: Anchorage-independent cell growth inhibition in spheroid plate (CellTiter-Glo); assay type: cell-based; details: Mus musculus, 120 h, final concentration 1.1 μM, 96-well spheroid plate, cultured 5 days, DMSO = 0%, medium only = 100%, read-out: growth inhibition rate (%)
Procedure: The measurement (colony method or the like) of anchorage-independent cell growth is known to be a system for examining the anticancer action (pharmacological effect) of a compound (“Clinical Oncology” 2nd edition, Japanese Journal of Cancer & Chemotherapy). As a method that measures the growth of non-adherent cells unlike the colony method, there is a method using a spheroid plate as described above.
In addition, a plate to which only a medium was added was prepared as a […]. […] As a […], DMSO as solvent of the compound was added thereto at the same concentration (0.1%) as the compound. Thereafter, the cells were cultured for 5 days at 37° C. in the presence of 5% CO2, and the cell counting reagent (CellTiter-Gio™ Luminescent Cell Viability Assay; Promega Corporation) was added thereto, followed by stirring for 20 minutes. Thereafter, the cells were measured using a luminescence measurement instrument (Envision; PerkinElmer Inc.). The values of positive control and negative control were regarded as 100% inhibition value and 0% inhibition value respectively to calculate the growth inhibition rate (%) of the respective compounds.

[2] = molecular target: T1, KIF5B-RET fusion polypeptide v1S (Homo sapiens, UniProt P07949); experiment: cell-based; details: NIH3T3, read-out: phosphorylation inhibition rate
T1 sequence (P07949 with tags, fused parts or gaps isoform P07949-2): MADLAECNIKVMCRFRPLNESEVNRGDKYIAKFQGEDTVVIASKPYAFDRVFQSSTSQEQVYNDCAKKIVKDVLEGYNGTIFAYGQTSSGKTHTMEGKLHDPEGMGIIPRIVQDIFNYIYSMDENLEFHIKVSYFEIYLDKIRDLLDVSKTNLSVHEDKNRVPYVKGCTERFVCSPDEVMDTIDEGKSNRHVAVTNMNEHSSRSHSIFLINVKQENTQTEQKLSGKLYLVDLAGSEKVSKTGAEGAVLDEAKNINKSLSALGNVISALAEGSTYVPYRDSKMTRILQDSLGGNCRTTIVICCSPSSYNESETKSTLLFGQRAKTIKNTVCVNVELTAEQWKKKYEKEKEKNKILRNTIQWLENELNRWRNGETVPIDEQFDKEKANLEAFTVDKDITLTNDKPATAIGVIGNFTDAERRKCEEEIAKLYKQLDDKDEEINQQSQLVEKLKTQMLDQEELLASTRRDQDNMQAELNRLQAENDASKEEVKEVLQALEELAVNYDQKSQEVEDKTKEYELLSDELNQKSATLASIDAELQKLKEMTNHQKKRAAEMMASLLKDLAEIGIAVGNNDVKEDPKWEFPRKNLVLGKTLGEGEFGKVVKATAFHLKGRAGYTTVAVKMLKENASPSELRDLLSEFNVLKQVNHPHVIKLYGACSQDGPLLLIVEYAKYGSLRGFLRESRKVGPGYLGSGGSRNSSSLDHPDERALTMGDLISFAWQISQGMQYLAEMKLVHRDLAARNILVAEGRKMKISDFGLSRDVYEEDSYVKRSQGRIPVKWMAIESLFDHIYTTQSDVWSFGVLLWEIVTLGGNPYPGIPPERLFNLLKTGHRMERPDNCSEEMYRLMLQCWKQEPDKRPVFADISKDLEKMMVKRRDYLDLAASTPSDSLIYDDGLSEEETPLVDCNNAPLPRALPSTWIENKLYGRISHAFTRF

Compound	inhibition at 1.1 µM [1] [%]	inhibition at 1 µM [2] [%]
CNC(=O)c1cc(Oc2ccc(NC(=O)Nc3ccc(Cl)c(C(F)(F)F)c3)cc2)ccn1 [Sorafenib]	96	
COc1cc2c(Nc3ccc(Br)cc3F)ncnc2cc1OCC1CCN(C)CC1 [Vandetanib]	83	
CCN(CC)CCNC(=O)c1c(C)[nH]c(/C=C2\C(=O)Nc3ccc(F)cc32)c1C [Sunitinib]	77	57
